Measurements reported in patent US12622918B2, “Formulations and dosages for administering a compound that inhibits MCL1 protein” (Amgen Inc., priority 2019, dated 2026).

Assays:
[1] = system: KMS-28-PE; test: Cell viability (CellTiterGlo), KMS-28-PE; assay type: cell-based; conditions: Multiple myeloma, 24 hours, 10% FBS, read-out: AMS 176 IC50
[2] = system: Namalwa; test: Cell viability (CellTiterGlo), Namalwa; assay type: cell-based; conditions: NHL, 24 hours, 10% FBS, read-out: AMS 176 IC50
[3] = system: Ramos; test: Cell viability (CellTiterGlo), Ramos; assay type: cell-based; conditions: Homo sapiens, NHL, 24 hours, 10% FBS, read-out: AMS 176 IC50
[4] = system: U26681; test: Cell viability (CellTiterGlo), U26681; assay type: cell-based; conditions: U26681, Multiple myeloma; 24 hours; 10% FBS; read-out: AMS 176 IC50
[5] = system: Raji; test: Cell viability (CellTiterGlo), Raji; assay type: cell-based; conditions: Homo sapiens, NHL, 24 hours, 10% FBS, read-out: AMS 176 IC50
[6] = system: subjects with relapsed/refractory multiple myeloma; test: Phase 1 FIH study, multiple myeloma part 1a (QD2); assay type: in vivo, human
Procedure: In part 1a, subjects were enrolled across 8 cohorts, with doses ranging from 30 to 240 mg/m^2 QD2. In part 1b, subjects were enrolled across 2 cohorts, with doses of 120/180-mg/m^2 or 120/240-mg/m^2.

[7] = Pharmacokinetics in dogs; assay type: in vivo
Source text: The pharmacokinetics (PK) of the compound of Formula I after single intravenous (IV) or oral administration were characterized in male CD1 mice, female athymic nude mice, male Nu/Nu mice, male Sprague Dawley rats, male beagle dogs, and male cynomolgus monkeys. The clearance (CL) of the compound was low in mice, rats, dogs, and monkeys relative to their hepatic blood flow. Volume of distribution at steady state (Vss) in mice, rats, dogs, and monkeys was variable across the species.

[8] = system: OPM2-Luc tumor xenografts; test: OPM2-Luc xenograft efficacy, once daily dosing; assay type: in vivo, mice; conditions: for animals tumor free: day 24
Procedure: OPM2-Luc cells (5×10^6) were implanted subcutaneously into female athymic nude mice. […] Three of 10 animals in the 30 mg/kg group and 10 of 10 animals in the 60 mg/kg group were tumor free on day 24.

[9] = system: U937; test: Cell viability (CellTiterGlo), U937; assay type: cell-based; conditions: Homo sapiens, U-937; U937, NHL; 24 hours; 10% FBS; read-out: AMS 176 IC50
[10] = molecular target: T1, MCL1-BAK protein-protein interaction (Homo sapiens, UniProt Q07820); test: MCL1-BAK protein-protein interaction PD assay, HEK 293M MCL1(1-327)-Luc/BAK-Luc Matrigel plug model in mice; assay type: in vivo; conditions: for inhibition of MCL1-BAK protein-protein interaction, as measured by luciferase activity: 2-, vs vehicle p<0.0025, female athymic nude mice
T1 construct: human MCL1 encoding amino acids 1-327 and full-length human BAK; expressed in transfected cells; host or cells: HEK 293M cells, stably transfected, in Matrigel plugs in female athymic nude mice
Source text: The inhibition of MCL1-BAK protein-protein interaction was used as a pharmacodynamics (PD) assay in HEK 293M cells stably transfected so as to express the N-terminal fragment of human MCL1 encoding amino acids 1-327 and full-length human BAK, linked to the N- and C-terminal fragments of firefly luciferase, respectively (interaction between MCL1 [1-327] and BAK results in the complementation of the C- and N-terminal fragments of luciferase and the formation of active luciferase).

[11] = molecular target: Dog MCL1 (Canis lupus familiaris, UniProt Q8HYS5); test: Cell-free TR-FRET BIM-binding assay, Dog MCL1; conditions: BIM-binding partner Dog MCL1; n = 3
[12] = system: SU-OHL-6; test: Cell viability (CellTiterGlo), SU-OHL-6; assay type: cell-based; conditions: SU-OHL-6, NHL; 24 hours; 10% FBS; read-out: AMS 176 IC50
[13] = Plasma protein binding in vitro; assay type: in vitro ADME
[14] = Distribution into blood cells; assay type: in vitro ADME
[15] = system: rat blood; test: In vitro hemolysis of whole blood, rat; conditions: 0.048, 0.12, 0.24, 1.2, and 2.4 mg/mL, vehicles containing hydroxypropyl-β-cyclodextrin
[16] = system: OPM2-Luc orthotopic tumors; test: OPM2-Luc multiple myeloma orthotopic model, AMG 176 plus carfilzomib; assay type: in vivo; conditions: AMG 176 20 mg/kg orally once daily; carfilzomib 3 mg/kg IV twice weekly; day 4 until day 20; female NSG mice
Procedure: On day 0, female NSG mice were injected IV with 1×10^6 OPM2-Luc human OPM2-Luc multiple myeloma tumor cells transfected with the firefly luciferase gene.

[17] = system: KMM1; test: Cell viability (CellTiterGlo), KMM1; assay type: cell-based; conditions: KMM-1; KMM1, Multiple myeloma; 24 hours; 10% FBS; read-out: AMS 176 IC50
[18] = molecular target: Monkey MCL1 (Macaca fascicularis, UniProt A0A2K5W0Y7); test: Cell-free TR-FRET BIM-binding assay, Monkey MCL1; conditions: read-out: IC50 (Mean ± SD) of AMG 176 With Respect to Binding; BIM-binding partner Monkey MCL1; n = 3
Monkey MCL1, sequence (A0A2K5W0Y7 1-346): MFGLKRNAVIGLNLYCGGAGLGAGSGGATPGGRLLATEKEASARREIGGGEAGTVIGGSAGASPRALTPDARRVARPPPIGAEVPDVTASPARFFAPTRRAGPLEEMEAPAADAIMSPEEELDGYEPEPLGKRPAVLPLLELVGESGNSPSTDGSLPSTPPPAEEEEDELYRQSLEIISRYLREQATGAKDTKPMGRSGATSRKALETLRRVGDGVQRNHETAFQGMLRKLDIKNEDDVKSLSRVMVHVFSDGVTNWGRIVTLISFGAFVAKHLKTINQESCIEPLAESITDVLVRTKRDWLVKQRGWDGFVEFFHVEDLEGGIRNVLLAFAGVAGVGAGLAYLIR

T1 sequence (Q07820 1-327): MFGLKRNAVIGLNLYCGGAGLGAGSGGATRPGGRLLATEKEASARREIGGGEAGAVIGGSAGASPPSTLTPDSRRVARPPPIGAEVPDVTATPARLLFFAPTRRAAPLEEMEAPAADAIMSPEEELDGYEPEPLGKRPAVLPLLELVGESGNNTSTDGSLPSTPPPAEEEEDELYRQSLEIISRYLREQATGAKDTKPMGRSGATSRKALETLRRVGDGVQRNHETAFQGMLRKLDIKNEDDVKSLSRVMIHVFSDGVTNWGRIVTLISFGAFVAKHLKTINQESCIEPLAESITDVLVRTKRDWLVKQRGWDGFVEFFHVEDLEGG
Dog MCL1, sequence (Q8HYS5 whole entry): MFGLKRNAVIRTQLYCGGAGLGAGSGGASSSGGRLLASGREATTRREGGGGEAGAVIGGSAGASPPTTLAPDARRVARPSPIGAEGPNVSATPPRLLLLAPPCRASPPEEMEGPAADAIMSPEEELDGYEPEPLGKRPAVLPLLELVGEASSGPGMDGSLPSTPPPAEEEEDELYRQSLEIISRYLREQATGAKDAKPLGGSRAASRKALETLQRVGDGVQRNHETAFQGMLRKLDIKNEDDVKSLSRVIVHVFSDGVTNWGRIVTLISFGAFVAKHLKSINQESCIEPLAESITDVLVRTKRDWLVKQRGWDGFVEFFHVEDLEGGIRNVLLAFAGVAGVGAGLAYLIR

CO[C@H]1/C=C/C[C@H](C)[C@@H](C)S(=O)(=O)NC(=O)c2ccc3c(c2)N(C[C@@H]2CC[C@H]21)C[C@@]1(CCCc2cc(Cl)ccc21)CO3 [AMG 176]
IC50 [1]: 12000 nM | IC50 [2]: 237 nM | IC50 [3]: 34 nM | IC50 [4]: 8220 nM | IC50 [5]: 3550 nM | Grade 3 adverse events, subjects ([6]; MM part 1a): 65% | Serious adverse events, subjects ([6]; MM part 1a): 31% | adverse events considered related to AMG 176, subjects ([6]; MM part 1a): 69% | adverse events leading to discontinuation of investigational product ([6]; MM part 1a): No adverse event led to discontinuation | anemia of grade 3 or higher ([6]; MM part 1a): 15% | decreased neutrophil count of grade 3 or higher ([6]; MM part 1a): 8% | decreased white blood cell count of grade 3 or higher ([6]; MM part 1a): 8% | grade 4 adverse events, subjects ([6]; MM part 1a): 31% | hypertension of grade 3 or higher ([6]; MM part 1a): 8% | neutropenia of grade 3 or higher ([6]; MM part 1a): 31% | related diarrhea ([6]; MM part 1a): 19% | related nausea ([6]; MM part 1a): 23% | related neutropenia ([6]; MM part 1a): 23% | treatment-emergent adverse events, subjects ([6]; MM part 1a QD2, 26 subjects): 96% | anemia, subjects ([6]; MM part 1a, any grade): 27% | diarrhea, subjects ([6]; MM part 1a, any grade): 31% | fatigue, subjects ([6]; MM part 1a, any grade): 27% | nausea, subjects ([6]; MM part 1a, any grade): 35% | neutropenia, subjects ([6]; MM part 1a, any grade): 31% | dose-limiting toxicity (DLT) reported ([6]; MM part 1a, 1 subject in the 240 mg/m^2 cohort, fatal): tumor lysis syndrome | exposures (Cmax and AUC) versus dose ([6]; MM part 1a, 25 subjects, preliminary): generally increased with increasing doses | fatal adverse events ([6]; MM part 1a, hepatic failure (50 mg/m^2, not related), tumor lysis syndrome (240 mg/m^2, related)): Two | mean terminal elimination half-life (t1/2,z) [7]: 10.8 h | TGI ([8]; 20 mg/kg once daily oral gavage, p<0.001): 63% | effect on established OPM2-Luc tumors ([8]; 30 mg/kg and 60 mg/kg orally once daily, summary statement): tumor regression | tumor regression ([8]; 30 mg/kg once daily oral gavage, p<0.001): 50% | animals tumor free ([8]; 30 mg/kg once daily): Three of 10 | tumor regression ([8]; 60 mg/kg once daily oral gavage, p<0.0001): 100% | animals tumor free ([8]; 60 mg/kg once daily): 10 of 10 | changes in body weight and body score assessment ([8]; 10-60 mg/kg once daily oral gavage): no evidence of AMG 176-related changes | IC50 [9]: 474 nM | inhibition of MCL1-BAK protein-protein interaction, as measured by luciferase activity ([10]; 3 mg/kg, 8-, 12-, and 24-hour time points): Statistically significant inhibition | inhibition of MCL1-BAK protein-protein interaction, as measured by luciferase activity ([10]; 10 mg/kg, 4-, 8-, and 12-hour time points): Statistically significant inhibition | inhibition of MCL1-BAK protein-protein interaction, as measured by luciferase activity ([10]; 30 mg/kg, 4-, 8-, 12-, and 24-hour time points): Statistically significant inhibition | inhibition of the interaction between human MCL1 and human BAK in vivo ([10]; summary statement): dose-dependent inhibition | IC50 [11]: 0.284 nM | IC50 [12]: 165 nM | plasma protein binding [13]: highly plasma-protein bound | distribution into blood cells [14]: did not preferentially distribute into blood cells | hemolysis of whole blood [15]: cased hemolysis | TGI (tumor burden) [16]: 86% | IC50 [17]: 407 nM | IC50 [18]: 0.182 nM
